According to patent US20060135587A1, “Method and compounds for promoting healing and reducing inflammation” (priority 2002, published 2006):

What was measured:
[1] = test system: gastric and duodenal ulcer; test: Clinical trial in gastric and duodenal ulcer; type: in vivo, human; conditions: three 0.2 g tablets per day orally for three weeks
Method: A clinical trial of the effect of Compound 2 on gastric and duodenal ulcer was carried out in several gastroenterological clinics in Russia. A total of 167 patients, 30 to 75 years old, was studied; of these 93 had duodenal ulcers and 74 had gastric ulcers. The results were monitored by gastroscopy at weekly intervals. Each patient continued to receive the treatment which s/he had been given prior to commencement of the trial. Compound 2 was administered in addition to the previous treatment. Compound 2 was given orally as three 0.2 g tablets per day over a period of three weeks, ie a total dose of […] for the treatment course, Compound 2 healed 80% of all the duodenal ulcers treated, and 54% of all the gastric ulcers treated. […] The effect of Compound 2 was compared with those of a placebo, or cimetidine. Even better results were obtained when Compound 2 was administered together with conventional therapy. […] Following termination of treatment with Compound 2 no ulceration was observed, ie there was no sign of the abstinence syndrome which is typically seen with H2-blockers and hormones. Compound 2 was an effective therapeutic agent with a pronounced reparative effect on erosive and ulcerating injuries of the gastroduodenal area.

[2] = test system: regeneration of liver after partial hepatectomy; test: Liver regeneration after partial hepatectomy in rats; type: in vivo; conditions: for Level of recovery: 7 days, hepatectomy alone = 100
Method: Partial hepatectomy was performed using the conventional method (Higgins and Anderson, 1931) by removing the left lateral and central lobes of the liver from 80 male white rats, weighing 180-200 g.
Compound 2, Compound 4, Compound 5 or Compound 6 was administered to the experimental groups intraperitoneally in equimolar doses of 0.1 mM/kg and 0.2 mM/kg. These optimal doses were determined in preliminary experiments. The control group received intraperitoneal injections of saline solution. The compounds were administered on the day after the operation and then one injection was given daily over the course of 7 days, since maximum growth of the liver mass in rats is observed in the first 7 days after partial hepatectomy (Solopaev, 1980).
The effectiveness of the compounds was compared to that of a combination of non-steroid anabolic regeneration stimulators which are used in the treatment of liver pathology, namely Riboxin and potassium orotate at a dose of 0.2 mM/kg each (Rychnev and Frolov, 1984).
For quantitative evaluation of the regeneration process in the liver the coefficient of regeneration completion as determined by the formula below was used: [formula] where
Stimulation of the regeneration of tissue after hepatectomy in response to different medicinal preparations is associated with an increase in the synthesis of nucleic acids, as indicated by the increase in the content of RNA and DNA in the regenerated tissue. Quantitative analysis of DNA and RNA was performed by centrifugation. […] The enzymic component of anti-oxidant protection was also assessed on the basis of the activity of catalase and superoxidedismutase (SOD).
5 ml of […] of HCIO4 solution were added to the sample (100 mg). In order to ensure complete sedimentation of the acid-insoluble fraction, the beakers were put in ice for 15 minutes. Then they were centrifuged for 10 minutes at 5000 revolutions per minute. The sediment was washed twice with 0.2 M HCIO4. After the final centrifugation, the walls of the beaker were carefully dried with gauze and filter paper. The sediment was ground down with a glass pestle, suspended in 1 ml of water and then 1 ml of 0.6 M KON solution was added at room temperature. Hydrolysis was performed over the course of 1 hour at 37° C., then the beakers were put in ice to stop the hydrolysis process. 4 ml of the 0.6 M solution were added to each beaker and the beakers were left in ice for another 15 minutes, then centrifuged for 15 minutes at 5000 revolutions per minute. The supernatant was used to determine the RNA by UV absorption at 260 nm and 290 nm compared to the control sample containing 0.4M of HCIO4). The amount of RNA in μg per 1 ml of the supernatant was calculated using the following formula: [formula] where C=is the RNA concentration (μg/ml)
DNA analysis was carried out on the sediment remaining after the alkaline hydrolysis used to determine RNA. 0.5 M of HCIO4 (5 ml per sample) was poured into the dried beaker containing the sediment. Hydrolysis was performed in a boiling water bath for 20 minutes. The amount of DNA in μg per 1 ml of the hydrolysate was calculated using the following formula: [formula] where C=is the DNA concentration (μg/ml). Catalase Activity
Catalase activity was determined using the permanganate method. The optimal amount of the substrate (3 ml of 1% H2O2) and 1 ml of the enzyme were added to 10 ml of phosphate buffer, pH 7.8. After 10 minutes the reaction was stopped by adding 1.5 ml of H2SO4 (50%). The remaining hydrogen peroxide was filtered with 0.1M of KMnO4 solution. Catalase activity was calculated on the basis that 1 ml of 0.1M of KMnO4 solution corresponds to […] of H2O2.
SOD activity was determined using the dianisidine method, which is based on the fact that under ultraviolet irradiation Riboflavin (Rb) is converted to an excited (ionised) state and therefore becomes able to attack reduced dianisidine (DH2). […]

[3] = test system: liver after partial hepatectomy; test: Morphological study of the liver after partial hepatectomy; type: in vivo, rats; conditions: one week after hepatectomy
Method: Morphological methods are highly informative in the assessment of repair processes. Histological tests of the liver after partial hepatectomy were performed using generally accepted methods. Microscopic sections were stained with hematoxylin and eosin using Van Gieson's methodology. Liver tests after partial hepatectomy were performed on 8 groups of animals, totalling 37 rats. All animals were examined one week after hepatectomy.

[4] = test system: lesions of the gastric mucosa; test: Gastric lesions induced by immobilization and hypothermia; type: in vivo, rats; design: % reduction of degree of ulceration / % reduction of ulcerated area: concentration or dose not given beside the values; conditions: Protective effect, 30 minutes before the test
Method: The models used gastric ulcers induced by
b) Immobilization and hypothermia (induced by water cooling);
The compounds were administered intraperitoneally at a dose of 20 mg/kg; in the cryogenic ulcer model compound 2 was administered either intraperitoneally (10 mg/kg) or orally (20 mg/kg twice daily, ie. a total of 40 mg/kg/day) and was compared to orally-administered gastrocepin (1 mg/kg twice daily, ie. a total of 2 mg/kg/day).

CC[n+]1cn(C)c(C(=O)NC)c1C(=O)NC.O=S(=O)([O-])c1ccccc1 [Compound 2, 1-methyl-3-ethyl-4,5-bis(N-methylcarbamoyl)-imidazolium benzenesulfonate]
side effects [1]: No side effects were observed
duodenal ulcers healed ([1]; added to previous treatment): 80%
gastric ulcers healed ([1]; added to previous treatment): 54%
Catalase E activity ([2]; 0.1 mM/kg): 18.0 ± 3.1 μgM/min/g tissue × 1000
DNA content (in mg/g of tissue) ([2]; 0.1 mM/kg): 4.2 ± 0.37 mg/g of tissue
Protein content ([2]; 0.1 mM/kg): 86.4 ± 9.8 Mg/g tissue
RNA content (mg/g of tissue) ([2]; 0.1 mM/kg): 7.07 ± 0.18 mg/g of tissue
SOD activity ([2]; 0.1 mM/kg): 78.9 ± 5.8 Units/g tissue
Level of recovery ([2]; 0.1 mM/kg intraperitoneally): 150.5
DNA content higher than in animals undergoing hepatectomy alone ([2]; 0.1 mM/kg or 0.2 MM/kg): 15%
Catalase E activity ([2]; 0.2 mM/kg): 20.0 ± 1.92 μgM/min/g tissue × 1000
DNA content (in mg/g of tissue) ([2]; 0.2 mM/kg): 4.1 ± 0.13 mg/g of tissue
Protein content ([2]; 0.2 mM/kg): 94.8 ± 8.4 Mg/g tissue
RNA content (mg/g of tissue) ([2]; 0.2 mM/kg): 6.96 ± 0.39 mg/g of tissue
SOD activity ([2]; 0.2 mM/kg): 98.0 ± 4.6 Units/g tissue
Level of recovery ([2]; 0.2 mM/kg intraperitoneally): 134.9
increase of the organ regeneration completeness ratio ([2]; 0.1 and 0.2 mM/kg): 34.9-50.5%
histological findings in the liver ([3]; 0.1 MM/kg): showed no undesirable effects
histological findings in the liver ([3]; 0.2 MM/kg): some of the animals demonstrated hepatocyte hypertrophy combined with subacute hepatitis
% reduction of degree of ulceration [4]: 64%
% reduction of ulcerated area [4]: 62%
Area of lesion [4]: 4.1 ± 0.8
Average number of lesions per animal ([4]; 20 mg/kg intraperitoneally): 4.1 ± 0.9
